A melting point compilation (Tetko et al.; mined from patent text by program, amines drawn as free bases though some values may be those of a salt)

Point of comparison: `COC(=O)C1Cc2c([nH]c3ccccc23)C(c2cccc(OC)c2)N1` (stereo unspecified), melting point 146 °C. Against it:
- CC(=O)O[C@H]1CC[C@H]2[C@@H]3CCc4cc(O)ccc4[C@H]3[C@@H](CCCCCCCCCS(=O)(=O)CCCC(F)(F)C(F)(F)F)C[C@]12C — lower, 130 °C
- CC(C(N)=O)c1ccc(-c2ccc(F)cc2F)c(F)c1 (stereo unspecified) — lower, 136 to 137 °C
- CC(C)(C)OC(=O)CNC(=O)OCC1c2c(c3ccccc3c3ccccc23)-c2c1c1ccccc1c1ccccc21 — higher, 170 to 171 °C
- COc1nc(C)c2c(c1C#N)CCCC2=O — lower, 128 °C
- COc1ccc(C=CC(=O)c2ccc(OC)cc2O)cc1 — lower, 108 °C
- Cc1nc2c(OCc3c(Cl)ccc(S(=O)(=O)N4CCC[C@H]4C(=O)NCc4ccc(C=NN)cc4)c3Cl)cccn2c1C — not separable, 144 to 146 °C
- COc1ccc(CCN(C)CCOc2ccc(NC(=O)c3cc(SC)cc4c(=O)c5ccccc5[nH]c34)cc2)cc1OC — higher, 150 °C
- Cc1ccc(OS(=O)(=O)c2ccc(N3CCN(C)C3=O)cc2)c(C)c1 — higher, 159 to 161 °C
- Cc1ccc(O)c(Cn2c(NC3CCNC(CCN4CCOCC4)C3)nc3ccc(C=Cc4ccccc4)cc32)n1 (stereo unspecified) — higher, 224 °C
- COc1ccc(C(=O)Nc2cccnc2Cl)c2c1oc1ccccc12 — higher, 192 °C
- COC(=O)C1=C(C)NC(C)=C(C(=O)OCC2CCCO2)C1c1cccc(C#N)c1 (stereo unspecified) — lower, 127 to 129 °C
- CN1C(=O)C2CCCN2C(=O)c2ccccc21 (stereo unspecified) — lower, 124 to 126 °C
- ClCCCOc1ccccc1Cc1cccc2[nH]ccc12 — lower, 75 °C
- CC(=O)C1CCC2C3CCC4=CC(=O)C=CC4(C)C3CCC12C (stereo unspecified) — higher, 183 to 185 °C
- COc1cc2c(cc1OC)CN(CCc1ccc(NC(=O)c3cccc4c(=O)c5cccc(F)c5[nH]c34)c(C)c1)CC2 — higher, 210 °C
- CCOC(=O)COc1c(OC)cc(Cl)c2c1CN1CCc3cc(OC)c(O)cc3C1C2 (single isomer, unassigned; (-)) — lower, 132 °C
- CCC(CCNC(=O)C(C#N)=Cc1ccc(O)c(O)c1)NC(=O)C(C#N)=Cc1ccc(O)c(O)c1 (stereo unspecified) — higher, 252 °C
- CCCCc1nn(-c2ccc(C(F)(F)F)cn2)cc1CO — lower, 110 to 111 °C
- CCOC(CC)c1ccc(Cl)c2nc3n(c12)CCCN3c1cnc(N(C)C)cc1C (stereo unspecified) — higher, 179 to 180 °C
- CN(C)CC#CCNC(=O)C(O)(c1ccccc1)C1CCCCC1 (single isomer, unassigned; (-)) — lower, 120 to 121 °C
- N#Cc1cc(F)c(N)cc1Oc1ccc2ccccc2c1 — lower, 89 °C
- COc1ccc(S(=O)(=O)Nc2cccc(C)c2NC(=O)c2ccncc2)cc1 — higher, 213 to 217 °C
- CCOC(=O)C1=C(N)NC(C)=C(C(=O)OC)C1c1cc([N+](=O)[O-])ccc1Cl (stereo unspecified) — lower, 124 °C
- Nc1nc(-n2cc(C(=O)O)c(=O)c3cc(F)c(F)c(F)c32)c(F)cc1F — higher, 280 °C
- COC(=O)N1CCN(c2ccn3nc(-c4ccccc4)c(-c4ccc(=O)n(C(C)C)n4)c3c2)CC1 — higher, 206 to 207 °C
- CCCc1ccnc(C(N)=O)c1N — lower, 139 to 141 °C
- CC(=O)Nc1ccc(C2=NNC(=O)NC2C)cc1 (stereo unspecified) — higher, 272 to 273 °C
- CC(=O)NC[C@H]1CN(c2ccc(C3=CCN(C=O)CC3)cc2)C(=O)O1 — higher, 149 to 152 °C
- COc1ccc(COc2cc3c(cc2-c2cc(C=CC(=O)O)ccc2OC)C(C)(C)CCC3(C)C)cc1 — higher, 201 to 203 °C
- CCCc1nnc(/C=C/c2nc(-c3ccccc3)oc2COc2ccc(OCc3nc(-c4ccccc4)oc3C)cc2)o1 — lower, 119 to 120 °C
- OC(c1cccc(C(F)(F)F)c1)C1CCN(CCc2ccccc2)CC1 (stereo unspecified) — not separable, 143 to 147 °C
- CCCCCC(=O)N1c2ccccc2NC(=O)c2cscc21 — lower, 127 to 129 °C
- Cc1ccc(N(C)S(=O)(=O)c2cccs2)c2[nH]c(-c3nccs3)cc12 — higher, 159 to 160 °C
- Cc1nc(N)c(C#N)c(NCc2cncc(Br)c2)n1 — higher, 283 to 284 °C
- OCCCCN1CCC(C(O)(c2ccc(F)cc2)c2ccc(F)cc2)CC1 — lower, 130 to 131 °C
- CCC(CC)c1nnc(SC)n(N)c1=O — lower, 50 to 56 °C
- CCCn1cc(C2CCC(=O)CC2)c2cc(C#N)ccc21 — lower, 103 to 104 °C
- O=c1[nH]c2ccc(-c3cccnc3)cc2cc1Br — higher, 297 to 300 °C
- COC(=O)c1sc(C)c(O)c1O — lower, 116 to 117 °C
- CC1=CC(c2cccc(Cl)c2)C2=C(CC(C)(C)CC2=O)N1 (stereo unspecified) — higher, 183 to 185 °C
- O=C(O)c1ccc(OCCCCCCc2cccc(OCc3ccccc3)c2OCc2ccccc2)c(Cl)c1 — lower, 87 to 89 °C
- Cc1cn(-c2ccc(N3C[C@H](COS(C)(=O)=O)OC3=O)cc2F)cn1 — higher, 151 to 153 °C
- CC1Sc2c(C(=O)O)c(=O)c3cc(F)c(N4CCC(N)C4)c(Cl)c3n21 (stereo unspecified) — higher, > 300 °C
- CCNC(=O)c1ccc(Oc2c(C)n(CC(=O)O)c3ccc(F)cc23)cc1 — higher, 220 to 222 °C
- COC(CCCNC(=O)CCCCCCCCC(=O)NCCCC(OC)OC)OC — lower, 83.5 to 85.5 °C
- Cc1ccc(S(=O)(=O)N(C(=O)OC(C)(C)C)[C@@H]2CCCC[C@H]2N)cc1 — lower, 137 to 139 °C
- CNC(=O)Nc1nc(CC(=O)Nc2cccc(C(F)(F)F)c2)cs1 — higher, 200 to 203 °C
- CCCC=Cc1c(C(C)C)nc(C(C)C)c(CO)c1-c1cccc(C)c1 — lower, 94 to 97 °C
- OCc1c[nH]c(Cc2ccccc2)n1 — lower, 134 to 135 °C
- CCCCCCCCCCCCCCCCSCC(CNS(=O)(=O)CCCCl)n1nnnc1C (stereo unspecified) — lower, 62 to 62.5 °C
- COC(=O)C(CO)N(Cc1ccccc1[N+](=O)[O-])S(=O)(=O)c1ccc(OC)cc1 (stereo unspecified) — lower, 127 to 129 °C
- O=C(OCc1ccccc1)c1ccc(OCc2ccccc2)cc1OCc1ccccc1 — lower, 118 to 120 °C
- COc1cc(C=O)cc(C#N)c1O — higher, 180 °C
- COc1cc(/C=C/c2cc(/C=C/c3c[nH]c4ccccc34)n[nH]2)ccc1OCc1ccccn1 — lower, 120 to 130 °C
- Cc1nc2nc(-c3ccc(Cl)cc3)nn2c(=S)n1C — higher, > 300 °C
- CC(C)c1cc2c(cc1Oc1cnc(N)nc1N)OCCN2C — higher, 167 to 170 °C
- CCc1cc(C(C)=O)c(O)cc1OCc1cccc(C(=O)O)c1 — higher, 161 to 164 °C
- COc1cc(OC)c(-c2cncnc2)cc1/C=C/C(=O)c1ccc(C(=O)O)cc1 — higher, > 260 °C
- Cc1cn(-c2cccc(C(F)(F)F)c2)nc(-c2ccnn2-c2ccccc2)c1=O — higher, 147 to 150 °C
- CC(C)(C)CC(=O)c1ccc(O)c(Cl)c1Cl — higher, 156 to 158 °C
- O=C1C2CCCCC2C(=O)N1CCOC(OCCN1C(=O)C2CCCCC2C1=O)(C(=O)c1ccccc1)c1ccccc1 (stereo unspecified) — lower, 115 to 116 °C
- O=C(OC1CCCCC1=O)c1ccccc1 (stereo unspecified) — lower, 81 to 83 °C
- CCOC(=O)CCc1cc(F)c(N2CCNCC2)nc1Nc1ccc(F)cc1F — lower, 121 to 123 °C
- O=C(c1c(F)cccc1F)N1COCN(c2ccc(SC(F)(F)C(F)(F)F)cc2F)C1=O — lower, 47 to 50 °C
- Cc1ccc2nc(NC(=O)c3ccc(C(C)(C)CCc4noc(=O)[nH]4)cc3)cn2c1 — higher, 267 to 268 °C
- COc1ccc(N2C(=O)[C@@H](CCCc3ccccc3)[C@@H]2c2ccc(N3CCN(Cc4ccccc4)CC3)cc2)cc1 (relative stereo) — lower, 139 to 140 °C
- COC(=O)c1ccc2c(c1)C(c1ccccn1)=CC(C)(C)O2 — lower, 94 to 95 °C
- COc1cc(OC)c(C(C)=O)c(O)c1OC — lower, 114 to 116 °C
- COCOCc1nc2nc(O)cnc2c(=O)[nH]1 — higher, 224 to 226 °C
- CN(C)C1CCc2c(c3ccccc3n2CC(=O)O)C1 (stereo unspecified) — higher, 316 to 319 °C
- Nc1ncnc2c1ncn2CCCCOCP(=O)(O)O — lower, 67 °C
- COc1cc(NC(=O)c2csc(NC(=O)NCc3ccccc3)n2)ccc1OCC(=O)O — higher, 210 °C
- O=C(C=Cc1ccc(N2CCCC2)nc1)N1CCc2c([nH]c3ccccc23)C1c1ccc2c(c1)CCO2 (stereo unspecified) — higher, 201 °C
- COc1ccc(C2=Cc3ccc(O)cc3OC2)cc1 — higher, 161 to 163 °C
- COc1cc2ncnc(NC3=CC(=O)C(N4CCOCC4)=CC3=O)c2cc1OC — higher, 249 to 250 °C
- OC1CSC(Oc2ccc(-c3ccncc3)nc2)C(O)C1O (stereo unspecified) — higher, 248 °C
- CCOc1cc2ncc(C#N)c(Nc3ccc(Sc4nccn4C)c(Cl)c3)c2cc1OCC — higher, 285 to 290 °C
- COc1nc2nc(S(=O)(=O)Cl)nn2cc1C — higher, 154 to 157 °C
- Cc1cc(OCc2coc(/C=C/c3ccc(C(F)(F)F)cc3)n2)ccc1CS(=O)CCc1ccnn1C (stereo unspecified) — higher, 161 to 162 °C
- COc1ccc2c(c1)C(=NOCCN(C)C)c1c-2c(N2CCNCC2)nc2ccccc12 — lower, 84 to 86 °C
- C=CCc1cccc2c(=O)cc(C=Cc3ccccc3)oc12 — lower, 142 °C
- N=C(NC=Cc1ccc([N+](=O)[O-])cc1)c1ccccc1 — higher, 163 to 165 °C
- CCNc1nc2cccc(C(=O)OC)c2n1Cc1ccc(-c2ccccc2-c2nnn[nH]2)cc1 — higher, 256 to 258 °C
- COC(=O)c1cc(I)cc(OC)c1O — lower, 104 °C
- CCN(Cc1cc(Cl)ccc1OCC(C)C)c1ccc(C(=O)O)nn1 — lower, 132 to 134 °C
- Cc1ccc(S(=O)(=O)NC2(C)c3ccccc3C=Cc3ccccc32)cc1 — higher, 175 to 178 °C
- COc1ccc(N2CCN(c3cc4c(cc3-c3cccnc3)OC(C)(C)C4)CC2)cc1 — higher, 177 to 180 °C
- COc1cc(Cl)cn2cc(-c3ccc(Cl)cc3)nc12 — higher, 150 to 151 °C
- CNC(=O)C(=NOC)c1ccccc1COc1ncc(C(=O)OC(C)C)cc1C — lower, 101 to 102 °C
- Oc1ccc2c(c1)CCN(Cc1ccc3c(c1)OCO3)C2 — higher, 169 to 172 °C
- CC(Cl)c1cc(F)ccc1Oc1nc2ccc(-n3cc(-c4ccccc4)nn3)cc2cc1Cc1ccccc1 (stereo unspecified) — higher, 151 to 152 °C
- CC(=O)c1cc(C)n(CCO)n1 — lower, 78 to 79 °C
- CC1CC(=Cc2cc(C(C)(C)C)c(O)c(C(C)(C)C)c2)C(=O)N1C(N)=O (stereo unspecified) — higher, 195 to 196 °C
- COc1cnc(N2CCN(c3ccc([N+](=O)[O-])cc3)CC2)nc1 — higher, 212 °C
- Cc1ccc(-c2c3n(c(=O)c4ncccc24)CCCN(Cc2cc(C(F)(F)F)cc(C(F)(F)F)c2)C3=O)cc1 — higher, 194 to 195 °C
